Measurements reported in patent US20110105389A1 (priority 2009, published 2011).
Read-outs that look alike come from different tables or passages of the source.

Legend:
[1] = biological target: T1, human ghrelin receptor (GRLN, growth hormone secretagogue receptor, hGHS-R1a) (Homo sapiens, UniProt Q92847); assay: Competitive radioligand binding assay (ghrelin receptor), Method B1
T1 construct: purchased PerkinElmer BioSignal #RBHGHSM, lot#1887; host or cells: HEK-293 cells, stably transfected (membranes)
In short: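 Membranes incubated with compound 30 min at rt in 25 mM Hepes pH 7.4, 1 mM CaCl2, 5 mM MgCl2, 2.5 mM EDTA, 0.4% BSA, max 0.1% DMSO; filtered on PEI-soaked GF/C, washed with cold Tris, scintillation counted. Curves fitted by variable-slope non-linear regression.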

[2] = Plasma protein binding (equilibrium dialysis), Method B5; type: in vitro ADME; conditions: 60 min at 37° C., typically 10 μM
Text: B5. Plasma Protein Binding
The pharmacokinetic and pharmacodynamic properties of drugs are largely a function of the reversible binding of drugs to plasma or serum proteins such as albumin and α1-acid glycoprotein. In general, only unbound drug is available for diffusion or transport across cell membranes, and for interaction at the pharmacological target. On the other hand, drugs with low plasma protein binding generally have large volumes of distribution and rapid clearance since only unbound drug is available for glomerular filtration and, in some cases, hepatic clearance. Thus, the extent of plasma protein binding can influence efficacy, distribution and elimination. The ideal range for plasma protein binding is in the range of 87-98% for most drug products.
Protein binding studies were performed using human plasma. Briefly, 96-well microplates were used to incubate various concentrations of the test article for 60 min at 37° C. A concentration of 10 μM was a typical selection to be employed in this study. Bound and unbound fractions are separated by equilibrium dialysis, where the concentration remaining in the unbound fraction is quantified by LC-MS or LC-MS-MS analysis. […].

[3] = Pharmacokinetic analysis (intravenous and oral), Method B9; type: in vivo; conditions: for % F: 2 mg/mL intravenous and 8 mg/mL oral typically employed; for Tmax: individual values; for Vd: read-out: Vz
Text: B9. Pharmacokinetic Analysis
The pharmacokinetic (PK) behavior of compounds of the invention and their pharmaceutical compositions can be ascertained by methods well known to those skilled in the art and can be used to investigate the pharmacokinetic parameters (elimination half-life, total plasma clearance, etc.) for intravenous, subcutaneous and oral administration of these substances. (Wilkinson, G. R. “Pharmacokinetics: The Dynamics of Drug Absorption, Distribution, and Elimination” in Goodman & Gilman's The Pharmacological Basis of Therapeutics, Tenth Edition, Hardman, J. G.; Limbird, L. E., Eds., McGraw Hill, Columbus, Ohio, 2001, Chapter 1.) See also U.S. Pat. Nos. 7,476,653; 7,491,695; Intl. Pat. Appl. WO 2008/033328 and U.S. Patent Appl. Publ. 2008/0194672. As an example, compound 1505 has the PK profile below.
The determination of PK parameters for additional representative compounds of the invention is presented in the Examples.
A detailed analysis of the pharmacokinetic profile of representative compounds of the invention was conducted using the procedures outlined in Method B9.
A dose level of 2 mg/mL for intravenous administration and 8 mg/mL for oral administration were typically employed.

[4] = tested on: rat stomach fundus strips; assay: Ex-vivo potency evaluation on the rat stomach fundus (inhibition of ghrelin-induced contractility), Method B10; conditions: EFS
Method: B10. Ex-vivo Potency Evaluation on the Rat Stomach Fundus
Fundus strips (approximately 0.4×1 cm) were cut from the stomach of adult male Wistar rats parallel to the circular muscle fibers. They were placed between two platinum ring electrodes, 1 cm apart (Radnoti, ADlnstruments, USA) in 10 ml tissue baths containing Krebs solution bubbled with 5% CO2 in O2 and maintained at 37° C. Tissues were suspended under 1.5 g resting tension. Changes of tension were measured isometrically with force transducers and recorded with a PowerLab 8/30 data acquisition system (ADlnstruments, USA). Tissues were allowed to equilibrate for 60 min during which time bath solutions were changed every 15 min.
EFS was achieved by applying 0.5 ms pulses, 5 Hz frequency, at a maximally effective voltage of 70 V. EFS was applied for 30 sec at 3 min intervals for a 30 min initial period. This initial period was separated by a […] interval with wash out of the bath solution. Then, a second period of stimulation was started. […] Responses to the agents were measured and expressed as % of the mean of three or four pre-drug responses to EFS. All compounds were dissolved at 1 mM in distilled water or MeOH, as stock solutions.
IC50 values for the inhibition of ghrelin-induced contractility by representative compounds of the invention are presented in Table 7.

CYP3A4 = CYP3A4 (Homo sapiens, UniProt P08684); assay: biochemical
CYP2D6 = CYP2D6 (Homo sapiens, UniProt P10635); assay: biochemical
[5] = Ghrelin receptor binding activity, Method B1
[6] = Table 10b, 2 mg/mL intravenous typically employed
[7] = plasma, Oral, 8 mg/kg, read-out: Cmax

T1 sequence (Q92847 whole entry): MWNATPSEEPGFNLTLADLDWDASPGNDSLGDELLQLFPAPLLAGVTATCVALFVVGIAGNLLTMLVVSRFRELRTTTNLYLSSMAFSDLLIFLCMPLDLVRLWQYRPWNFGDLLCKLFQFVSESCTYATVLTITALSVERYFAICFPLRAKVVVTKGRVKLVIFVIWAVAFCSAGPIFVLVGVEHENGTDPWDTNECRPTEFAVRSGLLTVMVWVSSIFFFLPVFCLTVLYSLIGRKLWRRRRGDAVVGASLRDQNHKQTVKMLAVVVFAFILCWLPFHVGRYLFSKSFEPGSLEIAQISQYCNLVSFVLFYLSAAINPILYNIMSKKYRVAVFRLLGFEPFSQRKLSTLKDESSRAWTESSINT
Sequence of CYP2D6 (P10635 whole entry): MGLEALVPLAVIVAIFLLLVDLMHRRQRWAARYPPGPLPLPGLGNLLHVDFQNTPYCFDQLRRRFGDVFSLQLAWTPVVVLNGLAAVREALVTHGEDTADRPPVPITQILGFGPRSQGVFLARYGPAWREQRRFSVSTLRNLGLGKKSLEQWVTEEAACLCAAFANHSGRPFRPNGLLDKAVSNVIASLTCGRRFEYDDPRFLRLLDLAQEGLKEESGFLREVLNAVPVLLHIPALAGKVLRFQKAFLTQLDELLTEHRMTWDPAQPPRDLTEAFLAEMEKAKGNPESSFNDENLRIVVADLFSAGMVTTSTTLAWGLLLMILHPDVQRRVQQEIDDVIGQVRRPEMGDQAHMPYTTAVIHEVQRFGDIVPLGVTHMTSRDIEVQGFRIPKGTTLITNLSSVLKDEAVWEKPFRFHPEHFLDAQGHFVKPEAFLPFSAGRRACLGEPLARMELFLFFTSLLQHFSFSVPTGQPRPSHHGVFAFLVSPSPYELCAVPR
Sequence of CYP3A4 (P08684 whole entry): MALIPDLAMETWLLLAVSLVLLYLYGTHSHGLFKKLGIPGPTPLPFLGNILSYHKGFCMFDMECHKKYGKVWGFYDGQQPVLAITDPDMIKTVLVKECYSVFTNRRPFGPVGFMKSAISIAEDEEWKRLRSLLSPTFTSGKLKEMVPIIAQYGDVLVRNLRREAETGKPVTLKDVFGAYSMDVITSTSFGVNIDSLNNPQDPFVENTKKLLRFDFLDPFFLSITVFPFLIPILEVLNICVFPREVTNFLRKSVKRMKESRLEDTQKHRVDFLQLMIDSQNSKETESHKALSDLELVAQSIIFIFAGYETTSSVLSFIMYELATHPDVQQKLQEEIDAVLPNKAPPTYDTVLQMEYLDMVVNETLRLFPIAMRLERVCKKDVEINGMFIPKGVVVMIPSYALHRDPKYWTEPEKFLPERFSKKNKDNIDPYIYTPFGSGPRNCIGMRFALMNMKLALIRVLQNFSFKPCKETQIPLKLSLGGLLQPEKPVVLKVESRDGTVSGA

Row | SMILES | IC50 [1, 5] | Binding (%), Human Plasma Protein Binding [2] | % F ([3]; Table 10b) | Cl [3, 6] | t1/2 [3, 6] | other results
1 | CC(C)C1NCCOc2ccccc2C#CCNC(=O)C(Cc2c[nH]c3ccccc23)NC(=O)C(C(C)O)N(C)C1=O (stereo not drawn) [Compound 1692] | 1 to 10 nM | 98.2% | – | – | – | –
2 | CC(C)C1NCCOc2cc(F)ccc2C#CCNC(=O)C(Cc2c[nH]c3ccccc23)NC(=O)C(C(C)O)N(C)C1=O (stereo not drawn) [Compound 1693] | 10 to 100 nM | – | 5 ± 2% | 35 ± 18 mL/min/kg | 0.683 ± 0.067 h | –
3 | CCC1CCc2ccc(F)cc2OCCNC(C2(C)CC2)C(=O)N(C)C(C(C)O)C(=O)NC(Cc2c[nH]c3ccccc23)C(=O)N1 (stereo not drawn) [Compound 1703] | 1 to 10 nM | 99.5% | 12 ± 6% | 9 ± 6 mL/min/kg | 2.45 ± 0.867 h | –
4 | CC[C@@H]1C#Cc2ccc(F)cc2O[C@H](C)CN[C@@H](C2(C)CC2)C(=O)N(C)[C@@H](C(C)O)C(=O)N[C@H](Cc2c[nH]c3ccccc23)C(=O)N1 (stereo partly drawn) [Compound 1707] | 10 to 100 nM | 99.6% | – | 8 ± 4 mL/min/kg | 2.17 ± 0.433 h | –
5 | CC(C)[C@@H]1NCCOc2ccccc2C#CCNC(=O)[C@@H](Cc2ccccc2)NC(=O)[C@H](C(C)O)N(C)C1=O (stereo partly drawn) [Compound 1712] | – | – | – | – | – | IC50 [1]: 1 to 10 nM; F ([3]; Oral, 8 mg/kg): 15 ± 10%; Tmax ([3]; Oral, 8 mg/kg): 15/15/15; AUC(0-inf) ([3]; plasma, Intravenous, 2 mg/kg): 544 ng·h/mL; clearance ([3]; plasma, Intravenous, 2 mg/kg): 62 ± 10 mL/min/kg; half-life ([3]; plasma, Intravenous, 2 mg/kg): 2.3 ± 1.43 h; Vd ([3]; plasma, Intravenous, 2 mg/kg): 13.2 ± 9.57 L/kg; AUC(0-inf) ([3]; plasma, Oral, 8 mg/kg): 336 ng·h/mL; Cmax [3, 7]: 352 ± 297 ng/mL; fraction unbound at 60 min, 10 μM ([2]; human plasma): 0.024; IC50 [4]: 3.4 nM; IC50 (CYP3A4): 5800 nM
6 | CC(O)[C@H]1C(=O)N[C@H](Cc2c[nH]c3ccccc23)C(=O)N[C@H](C)C#Cc2ccccc2OCCN[C@@H](C2(C)CC2)C(=O)N1C (stereo partly drawn) [Compound 1713] | 1 to 10 nM | – | 14 ± 9% | 30 ± 1 mL/min/kg | 1.73 ± 0.417 h | –
7 | CC[C@@H]1C#Cc2ccccc2O[C@H](C)CN[C@@H](C2(C)CC2)C(=O)N(C)[C@@H](C(C)O)C(=O)N[C@H](Cc2c[nH]c3ccccc23)C(=O)N1 (stereo partly drawn) [Compound 1718] | 1 to 10 nM | – | 17 ± 6% | 5 ± 1 mL/min/kg | 2.7 ± 0.067 h | –
8 | CC(O)[C@H]1C(=O)N[C@H](Cc2c[nH]c3ccccc23)C(=O)N[C@H](C)CCc2ccc(F)cc2O[C@H](C)CN[C@@H](C2(C)CC2)C(=O)N1C (stereo partly drawn) [Compound 1719] | 10 to 100 nM | – | – | 44 ± 3 mL/min/kg | 1.55 ± 0.183 h | –
9 | CC(O)[C@H]1C(=O)N[C@H](Cc2c[nH]c3ccccc23)C(=O)N[C@H](C)C#Cc2ccc(F)cc2O[C@H](C)CN[C@@H](C2(C)CC2)C(=O)N1C (stereo partly drawn) [Compound 1720] | 10 to 100 nM | – | – | 33 ± 12 mL/min/kg | 1.17 ± 0.25 h | –
10 | CC[C@@H]1C#Cc2c(F)cccc2OCCN[C@@H](C(C)C)C(=O)N(C)[C@@H](C(C)O)C(=O)N[C@H](Cc2c[nH]c3ccccc23)C(=O)N1 (stereo partly drawn) [Compound 1726] | 10 to 100 nM | 99.8% | 14 ± 8% | 9 ± 6 mL/min/kg | 2.85 ± 0.267 h | –
11 | CC[C@@H]1CCc2ccc(F)cc2OCCN[C@@H](C2(C)CC2)C(=O)N(C)[C@@H](C(C)O)C(=O)N[C@H](Cc2ccccc2)C(=O)N1 (stereo partly drawn) [Compound 1746] | 1 to 10 nM | – | 59 ± 31% | 12 ± 1 mL/min/kg | 1.78 ± 0.067 h | –
12 | CC[C@@H]1CCc2ccc(F)cc2OCCN[C@@H](C(C)C)C(=O)N(C)[C@@H](C(C)O)C(=O)N[C@H](Cc2ccc(O)cc2)C(=O)N1 (stereo partly drawn) [Compound 1751] | 1 to 10 nM | 97.4% | 34 ± 19% | 32 ± 5 mL/min/kg | 0.767 ± 0.017 h | –
13 | CC[C@@H]1C#Cc2ccccc2OCCN[C@@H](C(C)C)C(=O)N(C)[C@@H](C(C)O)C(=O)N[C@H](Cc2c[nH]c3ccccc23)C(=O)N1 (stereo partly drawn) [Compound 1754] | 1 to 10 nM | 99.4% | 39 ± 44% | 8 ± 1 mL/min/kg | 1.77 ± 0.217 h | –
14 | CC[C@@H]1C#Cc2ccc(F)cc2OCCN[C@@H](C(C)C)C(=O)N(C)[C@@H](C(C)O)C(=O)N[C@H](Cc2c[nH]c3ccccc23)C(=O)N1 (stereo partly drawn) [Compound 1755] | 1 to 10 nM | 99.3% | 7 ± 4% | 12 ± 13 mL/min/kg | 2.05 ± 0.467 h | –
15 | CC(C)[C@@H]1NCC2CCc3cccc(c3O2)CCCNC(=O)[C@@H](Cc2ccccc2)NC(=O)[C@H](C(C)O)N(C)C1=O (stereo partly drawn) [Compound 1777] | 1 to 10 nM | 95.8% | – | – | – | AUCinf ([3]; Intravenous, 2 mg/kg): 369904 ± 127112 ng·min/mL; Cl ([3]; Intravenous, 2 mg/kg): 6 ± 2 mL/min/kg; Vz ([3]; Intravenous, 2 mg/kg): 0.882 ± 0.272 L/kg; t1/2 ([3]; Intravenous, 2 mg/kg): 1.78 ± 0.067 h; AUCinf ([3]; Oral, 8 mg/kg): 190433 ± 114760 ng·min/mL; Cmax ([3]; Oral, 8 mg/kg): 1075 ± 772 ng/mL; F ([3]; Oral, 8 mg/kg): 13 ± 8%; Tmax ([3]; Oral, 8 mg/kg): 15/30/15/15/15/15; IC50 [4]: 7.8 nM
16 | CC(C)[C@@H]1NCCOc2ccccc2C2CCC(C2)NC(=O)[C@@H](Cc2c[nH]c3ccccc23)NC(=O)[C@H](C(C)O)N(C)C1=O (stereo partly drawn) [Compound 1843] | 10 to 100 nM | 92.1% | – | – | – | IC50 [4]: 2.3 nM
17 | CC(C)[C@@H]1NCCOc2cccc(F)c2C#CCNC(=O)[C@@H](Cc2ccccc2)NC(=O)[C@H](C(C)O)N(C)C1=O (stereo partly drawn) [Compound 1929] | – | – | – | – | – | IC50 [1]: 1 to 10 nM; F ([3]; Oral, 8 mg/kg): 42 ± 51%; Tmax ([3]; Oral, 8 mg/kg): 15/15/30; AUC(0-inf) ([3]; plasma, Intravenous, 2 mg/kg): 1060 ng·h/mL; clearance ([3]; plasma, Intravenous, 2 mg/kg): 32 ± 4 mL/min/kg; half-life ([3]; plasma, Intravenous, 2 mg/kg): 2.83 ± 1.03 h; Vd ([3]; plasma, Intravenous, 2 mg/kg): 7.99 ± 3.7 L/kg; AUC(0-inf) ([3]; plasma, Oral, 8 mg/kg): 1790 ng·h/mL; Cmax [3, 7]: 628 ± 766 ng/mL; IC50 [4]: 2 nM; IC50 (CYP2D6): 25700 nM
